Results published in patent publication US5451407A, “Reduction or prevention of skin irritation or sensitization during transdermal administration of a irritating or sensitizing drug” (ALZA Corporation, priority 1993, dated 1995).

Columns and labels:
[1] = system: cumulative irritation produced by tetracaine HCl; experiment: Cumulative irritation produced by tetracaine HCl during the induction phase, visual score; assay type: in vivo, hairless guinea pigs; conditions: 2% tetracaine, alone or + 1% methyl nicotinate, Table 1 scale (total possible score 8)
Excerpt: The following formulations were made to determine the effect of methyl nicotinate on the cumulative irritation produced by tetracaine HCl during the induction phase:
1) 2 w/v percent tetracaine HCl, 28 w/v percent ethanol, 5 w/v percent HEPPS, 2 w/v percent hydroxypropylcellulose, NaOH q.s. pH 8 and distilled water q.s.,
2) 2 w/v percent tetracaine HCl, 1.0 w/v percent methyl nicotinate, 28 w/v percent ethanol, 5 w/v percent HEPPS, 2 w/v percent hydroxypropylcellulose, NaOH q.s. pH 8 and distilled water q.s., and
(§1) 3) 28 w/v percent ethanol, 5 w/v percent HEPPS, 2 w/v percent hydroxypropylcellulose, NaOH q.s. pH 8 and distilled water q.s.
0.1 ml of each formulation was placed in a Finn® chamber, and applied to the back of a hairless guinea pigs (Charles River). After 6 hours the chambers were removed. This was repeated a total of nine times. The inductions were alternated between two sites, such that one site received five applications and the other site received four applications. Two, 24 and 48 hours after removal of the first, fourth, seventh and ninth applications, the treatment sites were scored to assess irritation.

[2] = system: sensitization and elicitation of sensitization to tetracaine; experiment: Sensitization and elicitation of sensitization to tetracaine during the challenge phase, visual score; assay type: in vivo, hairless guinea pigs; set-up: scale not given here; conditions: challenge 1% tetracaine, alone or + methyl nicotinate (1.0 w/v percent), Table 1 scale
Excerpt: (§2) After the ninth induction exposure, the animals received no treatment for two weeks. The following formulations were used to determine the effect of methyl nicotinate on the sensitization and elicitation of sensitization to tetracaine during the challenge phase:
(§3) 1) 1 w/v percent tetracaine HCl, 28 w/v percent ethanol, 5 w/v percent HEPPS, 2 w/v percent hydroxypropylcellulose, NaOH q.s. pH 8 and distilled water q.s.,
(§4) 2) 1 w/v percent tetracaine HCl, 1.0 w/v percent methyl nicotinate, 28 w/v percent ethanol, 5 w/v percent HEPPS, 2 w/v percent hydroxypropylcellulose, NaOH q.s. pH 8 and distilled water q.s., and
as §1
(§5) 0.1 ml of each formulation was placed in a Finn® chamber. The chamber was then applied to the backs of the animals for 6 hours on previously untreated sites.

[3] = system: sensitization and elicitation of sensitization to tetracaine; experiment: Sensitization and elicitation reactions to tetracaine at 72 hours, Minolta Chroma Meter; assay type: in vivo, hairless guinea pigs; conditions: for a" value: challenge 1% tetracaine, alone or + 1% methyl nicotinate, Minolta Chroma Meter
Excerpt: The Minolta® Chroma Meter converts all colors within the range of human perception into a numerical code using the L*, a* and b* notation system. L* expresses brightness on the black-white axis; a* expresses hue on the red-green axis; and b* expresses chroma on the yellow-blue axis so that a specific numerical code enables an exact color description of an object. Minolta® measurements were made by taking the mean a* value of three readings at the treated site.
as §2, §3, §4, §1, §5
The test sites of the animals were then scored using a Minolta® Chroma Meter.

[4] = system: chloroquine-induced irritation; experiment: Effect of methyl nicotinate on chloroquine-induced irritation (Finn chamber, Minolta Chroma Meter); assay type: in vivo, adult human male; conditions: 0.05 w/v methyl nicotinate with chloroquine base 1% w/v, 16 hours application, human forearm; scored 3 hours to 7 days; FIG. 5
Excerpt: The following formulations were made to determine the effect of methyl nicotinate on chloroquine-induced irritation:
1) chloroquine base 1% w/v, ethanol 24% w/v, HEPPS 5% w/v, hydroxyethylcellulose gel 2% w/v, NaOH q.s. pH 8.5 and distilled water q.s.,
2) chloroquine base 1% w/v, methyl nicotinate 0.05 w/v, ethanol 24% w/v, HEPPS 5% w/v, hydroxyethylcellulose gel 2% w/v, NaOH q.s. pH 8.5 and distilled water q.s.,
3) methyl nicotinate 0.05 w/v, ethanol 24% w/v, HEPPS 5% w/v, hydroxyethyl cellulose gel 2% w/v, NaOH q.s. pH 8.5 and distilled water q.s., and
4) ethanol 24% w/v, HEPPS 5% w/v, hydroxyethylcellulose gel 2% w/v, NaOH q.s. pH 8.5 and distilled water q.s.
0.020 ml of each formulation was placed in a Finn® chamber. The chambers were inverted and applied to four skin sites on the forearm of an adult human. […] At 3 hours, 8 hours, 1 day, 2 days, 3 days, 4 days, 6 days and 7 days thereafter, the sites were observed and the intensity of the irritant reaction was scored with a Minolta® Chroma Meter.
The Minolta® Chroma Meter converts all colors within the range of human perception into a numerical code using the L*, a* and b* notation system. […] Minolta® measurements were made by taking the mean a* value of three readings at the treated site. That result was then subtracted from the mean a* value of three readings at adjacent sites treated with a placebo formulation.

[5] = system: elicitation of sensitization to propranolol; experiment: Effect of methyl nicotinate on the elicitation of sensitization to propranolol (Minolta Chroma Meter); assay type: in vivo, adult male known to be sensitized to propranolol; conditions: 0.05 w/v percent methyl nicotinate with 0.1 w/v percent propranolol base, two hours application, upper arm; recorded two and three days later; FIG. 6
Excerpt: The following formulations were made to determine the effect of methyl nicotinate on the elicitation of sensitization to propranolol:
1) 0.1 w/v percent propranolol base, 32 w/v percent ethanol, 5 w/v percent HEPPS, 2 w/v percent hydroxyethylcellulose, NaOH q.s. pH 8 and distilled water q.s., and
2) 0.1 w/v percent propranolol base, 0.05 w/v percent methyl nicotinate, 32 w/v percent ethanol, 5 w/v percent HEPPS, 2 w/v percent hydroxyethylcellulose, NaOH q.s. pH 8 and distilled water q.s.
0.020 ml of each formulation was placed in a Finn® chamber. The chambers were applied to four sites on the upper arm of an adult, who was known to be sensitized to propranolol. After two hours the chambers were removed and the sites washed. The intensity of the reaction was recorded two and three days later using the mean a* measurement recorded by a Minolta® Chroma Meter.

CCCCNc1ccc(C(=O)OCCN(C)C)cc1 [tetracaine]
visual irritation score ([1]; application four, 2 h after removal): 2.7 | visual irritation score ([1]; application four, 24 h after removal): 2.6 | visual irritation score ([1]; application four, 48 h after removal): 1.8 | visual irritation score ([1]; application nine, 2 h after removal): 6.7 | visual irritation score ([1]; application nine, 24 h after removal): 6.6 | visual irritation score ([1]; application nine, 48 h after removal): 6.0 | visual irritation score ([1]; application one, 2 h after removal): 1.9 | visual irritation score ([1]; application one, 24 h after removal): 1.2 | visual irritation score ([1]; application one, 48 h after removal): 1.1 | visual irritation score ([1]; application seven, 2 h after removal): 5.8 | visual irritation score ([1]; application seven, 24 h after removal): 5.9 | visual irritation score ([1]; application seven, 48 h after removal): 5.6 | visual score of challenge site ([2]; induction 2% tetracaine + 1% methyl nicotinate, 2 h after removal): 2.8 | visual score of challenge site ([2]; induction 2% tetracaine + 1% methyl nicotinate, 24 h after removal): 2.3 | visual score of challenge site ([2]; induction 2% tetracaine + 1% methyl nicotinate, 48 h after removal): 2.1 | visual score of challenge site ([2]; induction 2% tetracaine + 1% methyl nicotinate, 72 h after removal): 2.0 | visual score of challenge site ([2]; induction 2% tetracaine, 2 h after removal): 3.4 | visual score of challenge site ([2]; induction 2% tetracaine, 24 h after removal): 2.5 | visual score of challenge site ([2]; induction 2% tetracaine, 48 h after removal): 2.2 | visual score of challenge site ([2]; induction 2% tetracaine, 72 h after removal): 2.1 | visual score of challenge site ([2]; induction Control, 2 h after removal): 1.6 | visual score of challenge site ([2]; induction Control, 24 h after removal): 1.0 | visual score of challenge site ([2]; induction Control, 48 h after removal): 0.8 | visual score of challenge site ([2]; induction Control, 72 h after removal): 0.6 | a" value ([3]; induction formulation 2% tetracaine + 1% methyl nicotinate): 10.6 | a" value ([3]; induction formulation 2% tetracaine): 12.8 | a" value ([3]; induction formulation Control): 8.8

COC(=O)c1cccnc1 [methyl nicotinate]
irritant reaction (mean a* value) [4]: reduced the irritant reaction | elicitation of the sensitization reaction (mean a* value) [5]: inhibited the elicitation of the sensitization reaction | elicitation reaction to tetracaine (Minolta scores) ([3]; FIG. 9): decreased | sensitization reaction to tetracaine (Minolta scores) ([3]; FIG. 9): decreased
